The values below come from patent US7833553B2, “Sulfur-containing proanthocyanidin oligomer compositon and process for producing the same” (Amino Up Chemical Co. Ltd., priority 2003, dated 2010).

Assay [1] can be described thus: Superoxide dismutase (SOD)-like activity (SOD Test Wako kit). Format: biochemical. The method, then:
With respect to Substances 1 to 4 and Comparative Substances 1 and 2 which were the same as those used in Test Example 1, SOD-like activity was measured using a blood SOD activity measuring kit (SOD Test Wako: manufactured by Wako Pure Chemical Industries, Ltd.). SOD-like activity was calculated according to the following formula and 50% effective concentration (EC50) was calculated based on the relationship with the concentration of test sample. SOD-like activity(%)=[(1−(absorbance of test sample))/(absorbance of control)]×100
EC50 was calculated from SOD-like activities in gradual concentrations of each sample.

Assay [2] in a line: DPPH radical scavenging effect. It counts as biochemical. The conditions noted are these: 60 μM DPPH, room temperature 30 minutes, absorbance 520 nm. The method, then:
100 μl of a DPPH solution (60 μM ethanol solution) was charged in a 96-well microplate and 100 μl of an ethanol solution as a test sample or 100 μl of ethanol as a control was added, and the whole was gently mixed and left to stand at room temperature for 30 minutes. Then, absorbance at 520 nm was measured and a DPPH radical scavenging ability was calculated according to the following formula. 50% effective concentration (EC50) was calculated from the DPPH radical scavenging ability and concentrations of gradually diluted test samples. DPPH radical scavenging ability(%)=[(1−(absorbance of test sample))/(absorbance of control)]×100
50% effective concentration (EC50) was calculated from DPPH radial scavenging abilities in gradual concentrations of each sample.
On the technique in general: Loss of DPPH colour is used to gauge radical scavenging.

As to catechin [Comparative Substance 2], the “EC50 in SOD-like activity” value in assay [1] stood at 62.0 µg/mL. Also, in assay [2], the “EC50 in DPPH radical scavenging” value worked out at 1.71 µg/mL.
